Target: T1, Solute carrier family 12 member 3 (Homo sapiens) (UniProt P55017)
T1 sequence (whole entry): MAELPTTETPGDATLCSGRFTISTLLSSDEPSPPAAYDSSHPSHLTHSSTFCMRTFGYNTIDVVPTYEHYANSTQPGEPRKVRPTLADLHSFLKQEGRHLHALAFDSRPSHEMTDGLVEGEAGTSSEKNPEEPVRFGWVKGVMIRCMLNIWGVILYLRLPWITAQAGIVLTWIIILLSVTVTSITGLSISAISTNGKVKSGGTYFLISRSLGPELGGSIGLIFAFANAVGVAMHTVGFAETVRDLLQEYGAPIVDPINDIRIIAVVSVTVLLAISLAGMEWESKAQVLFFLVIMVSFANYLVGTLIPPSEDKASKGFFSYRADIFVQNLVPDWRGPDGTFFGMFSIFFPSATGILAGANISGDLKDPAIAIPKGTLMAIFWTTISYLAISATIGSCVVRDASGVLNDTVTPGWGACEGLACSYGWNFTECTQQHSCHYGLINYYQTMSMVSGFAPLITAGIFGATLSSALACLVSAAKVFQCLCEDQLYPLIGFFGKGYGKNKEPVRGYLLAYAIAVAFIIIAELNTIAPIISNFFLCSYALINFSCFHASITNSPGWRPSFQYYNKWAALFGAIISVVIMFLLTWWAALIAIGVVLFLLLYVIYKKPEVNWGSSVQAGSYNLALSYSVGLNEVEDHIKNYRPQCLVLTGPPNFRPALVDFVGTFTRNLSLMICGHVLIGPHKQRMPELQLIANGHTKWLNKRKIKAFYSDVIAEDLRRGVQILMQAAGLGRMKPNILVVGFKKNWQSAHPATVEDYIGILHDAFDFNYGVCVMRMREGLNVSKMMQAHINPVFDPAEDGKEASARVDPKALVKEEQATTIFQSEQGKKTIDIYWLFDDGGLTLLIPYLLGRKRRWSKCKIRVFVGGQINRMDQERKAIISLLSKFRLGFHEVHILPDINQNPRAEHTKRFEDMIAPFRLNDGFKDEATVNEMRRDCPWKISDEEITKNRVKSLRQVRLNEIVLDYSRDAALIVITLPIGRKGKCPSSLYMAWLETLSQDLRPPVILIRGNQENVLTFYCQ
Settings: HEK293
Description: Substrate uptake by the thiazide-sensitive electroneutral NaCl co-transporter (NCC, SLC12A3) as assessed by a Cl- sensitive FRET (Fluorescence Resonance Energy Transfer) sensor (SuperClomeleon) in HEK-293 JumpIN-SLC12A3 cells (PubChem AID: 1794834)

**Q.** For `Cl`, which proof of principle is on record?
**A.** Substrate. In Comparison To Wild-Type And Not-Induced Cells, Cells With Induced Slc12A3 Expression Showed A Specific Transporter Activity, Upon Substrate Addition, Detected As Significantly Higher Sensor Fluorescence Quenching.

Source: ChEMBL document CHEMBL5209564, “Superclomeleon biosensor based assay for SLC12A3 using HEK-293 SLC12A3 OE cells” (2022)
